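Growth conditions: 96-well plates. Treatment: test compound, 48 hours, 5 concentrations. Analysis: linear interpolation between bracketing concentrations; unreached endpoints set to highest concentration. GI50 = concentration required for 50% inhibition of growth.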 Activity calls are given as the source filed them. No stated cut-off is given here; in the data, active = GI50 up to about 1.1 µM and inactive = higher.
Columns and labels:
Assay in all cases: growth of human tumour cells (NCI), 48 h
[1] = test system: A498
[2] = test system: A549
[3] = test system: DU-145
[4] = test system: HOP-62
[5] = test system: HT-29
[6] = test system: Hs-578T
[7] = test system: IGROV-1
[8] = test system: MDA-MB-435
[9] = test system: MOLT-4
[10] = test system: NCI-H226
[11] = test system: NCI-H23
[12] = test system: NCI-H460
[13] = test system: OVCAR-5
[14] = test system: OVCAR-8
[15] = test system: SF-295
[16] = test system: SF-539
[17] = test system: SNB-75
[18] = test system: T47D
[19] = test system: TK-10
[20] = test system: UACC-257

SMILES | GI50 [1] | GI50 [2] | GI50 [3] | GI50 [4] | GI50 [5] | GI50 [6] | GI50 [7] | GI50 [8] | GI50 [9] | GI50 [10] | GI50 [11] | GI50 [12] | GI50 [13] | GI50 [14] | GI50 [15] | GI50 [16] | GI50 [17] | GI50 [18] | GI50 [19] | GI50 [20]
Cc1cc(C)nc(NS(=O)(=O)c2ccc(Nc3c4ccccc4nc4ccc(C(=O)Nc5ccc(S(=O)(=O)N=C(N)N)cc5)cc34)cc2)n1 | > 100 µM (inactive) | > 100 µM (inactive) | > 100 µM (inactive) | > 100 µM (inactive) | 59.4 µM (inactive) | > 100 µM (inactive) | > 100 µM (inactive) | 48.4 µM (inactive) | 32.3 µM (inactive) | > 100 µM (inactive) | > 100 µM (inactive) | 36 µM (inactive) | > 100 µM (inactive) | > 100 µM (inactive) | > 100 µM (inactive) | > 100 µM (inactive) | > 100 µM (inactive) | 38.2 µM (inactive) | > 100 µM (inactive) | 72.3 µM (inactive)
CN(C)CCC(=O)N1C/C(=C\c2ccc(Cl)c(Cl)c2)C(=O)/C(=C/c2ccc(Cl)c(Cl)c2)C1 | 1.32 µM (inactive) | 0.531 µM (active) | 0.224 µM (active) | 0.303 µM (active) | 0.188 µM (active) | 0.257 µM (active) | 0.434 µM (active) | 0.347 µM (active) | 0.19 µM (active) | 0.705 µM (active) | 0.504 µM (active) | 0.479 µM (active) | 0.731 µM (active) | 0.265 µM (active) | 0.274 µM (active) | 0.274 µM (active) | 0.415 µM (active) | 0.471 µM (active) | 0.625 µM (active) | 1.1 µM (active)
CC1=C(C)C(=O)O[C@@H]([C@](C)(O)[C@]2(O)CC[C@@]3(O)[C@@H]4C[C@H](O)[C@]5(O)[C@@H](O)C=CC(=O)[C@]5(C)[C@H]4CC[C@]23C)C1 | > 100 µM (inactive) | > 100 µM (inactive) | > 100 µM (inactive) | > 100 µM (inactive) | 86.3 µM (inactive) | > 100 µM (inactive) | > 100 µM (inactive) | 87.9 µM (inactive) | > 100 µM (inactive) | > 100 µM (inactive) | > 100 µM (inactive) | > 100 µM (inactive) | > 100 µM (inactive) | > 100 µM (inactive) | > 100 µM (inactive) | > 100 µM (inactive) | 37.2 µM (inactive) | > 100 µM (inactive) | > 100 µM (inactive) | > 100 µM (inactive)
CCN(CC)CCCNc1nncc2c(C)c3[nH]c4ccc(OC)cc4c3cc12 | 1.75 µM (inactive) | 0.718 µM (active) | 0.622 µM (active) | 0.525 µM (active) | 0.504 µM (active) | 0.482 µM (active) | 0.356 µM (active) | 1.11 µM (active) | 0.0173 µM (active) | 0.0557 µM (active) | 0.421 µM (active) | 0.789 µM (active) | 1.25 µM (inactive) | 0.182 µM (active) | 1.55 µM (inactive) | 0.268 µM (active) | 0.64 µM (active) | 0.286 µM (active) | 2.82 µM (inactive) | 2.35 µM (inactive)
COC(=O)[C@@H]1C2OC(C)(C)OC2CN1C(=O)OCc1ccccc1 (stereo not given in full) | > 100 µM (inactive) | > 100 µM (inactive) | > 100 µM (inactive) | > 100 µM (inactive) | > 100 µM (inactive) | > 100 µM (inactive) | > 100 µM (inactive) | > 100 µM (inactive) | > 100 µM (inactive) | > 100 µM (inactive) | > 100 µM (inactive) | > 100 µM (inactive) | > 100 µM (inactive) | > 100 µM (inactive) | > 100 µM (inactive) | > 100 µM (inactive) | 4.58 µM (inactive) | > 100 µM (inactive) | > 100 µM (inactive) | > 100 µM (inactive)
C=CC(COC(=O)C(C)(C)OC(C)=O)c1ccc(OC(=O)C(C)C)c(OC)c1 (stereo not given) | 17.2 µM (inactive) | 19.8 µM (inactive) | 11.2 µM (inactive) | 10.1 µM (inactive) | 3.27 µM (inactive) | 7.46 µM (inactive) | 14.1 µM (inactive) | 8.91 µM (inactive) | 3.62 µM (inactive) | 18.2 µM (inactive) | 18.8 µM (inactive) | 2.62 µM (inactive) | 14.6 µM (inactive) | 9.82 µM (inactive) | 4.23 µM (inactive) | 11.8 µM (inactive) | 7.16 µM (inactive) | 3.84 µM (inactive) | 8.57 µM (inactive) | 14.6 µM (inactive)

Reference: ChEMBL document CHEMBL1201862, “PubChem BioAssay data set” (2004)
